pIC50: −log10 of the molar value.

The test deals with T1, SOS1 (Homo sapiens, UniProt Q07889).
T1 construct: adding equal amounts of HIS-SOS1cat (160 nM; Cytoskeleton, US); His; purchased Cytoskeleton, US
T1 sequence (Q07889 564-1049 limits assumed): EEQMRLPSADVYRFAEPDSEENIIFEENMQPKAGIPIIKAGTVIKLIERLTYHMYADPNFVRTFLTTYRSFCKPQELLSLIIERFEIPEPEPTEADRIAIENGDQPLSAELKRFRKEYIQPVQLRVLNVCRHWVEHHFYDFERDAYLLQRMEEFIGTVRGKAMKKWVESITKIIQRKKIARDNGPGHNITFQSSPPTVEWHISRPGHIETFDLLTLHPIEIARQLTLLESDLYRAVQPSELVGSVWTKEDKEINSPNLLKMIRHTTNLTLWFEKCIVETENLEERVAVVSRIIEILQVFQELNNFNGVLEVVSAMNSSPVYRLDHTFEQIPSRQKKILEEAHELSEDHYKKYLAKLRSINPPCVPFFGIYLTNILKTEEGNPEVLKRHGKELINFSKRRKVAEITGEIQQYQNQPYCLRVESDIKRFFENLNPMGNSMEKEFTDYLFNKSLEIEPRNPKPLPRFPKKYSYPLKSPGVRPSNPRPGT
Description: SOS-catalyzed nucleotide exchange assay (HTRF, SOS1-mediated GTP loading of KRAS G12D). In kind it is biochemical. Particulars: GST-KRAS G12D, HIS-SOS1cat, EDA-GTP-DY-647P1; compound 128 pM to 10 µM; read-out: SOS-catalyzed nucleotide exchange assay (IC50 range, Grade). On the procedure:
SOS1 activity was measured by SOS1-mediated GTP loading quantification of KRAS^G12D. GTP-loaded KRAS^G12D was detected by HTRF (Homogeneous Time Resolved Fluorescence) using anti-GST terbium (Cisbio, France) as a donor and a fluorescence GTP analogue (EDA-GTP-DY-647P1, [DY-647P1-labeled 2'/3'-O-(2-aminoethyl-carbamoyl)guanosine-5'-triphosphate (Jena bioscience, Germany)]) as an acceptor.
Assay buffer was composed of 10 mM HEPES pH 7.4, 150 mM NaCl, 5 mM MgCl2, 1 mM DTT, 0.05% BSA Fraction V pH 7.0 (Sigma) and 0.0025% (v/v) Igepal (Sigma). KRAS^G12D working solution was prepared by adding equal amounts of GST-KRAS^G12D (100 nM) and anti-GST-terbium (2 nM; Cisbio, France) to the assay buffer and incubating on ice for 10 minutes. SOS1cat working solution was prepared by adding equal amounts of HIS-SOS1cat (160 nM; Cytoskeleton, US) and EDA-GTP-DY-647P1 (200 nM; Jena bioscience, Germany) to the assay buffer. Control solution was prepared by adding equal volumes of EDA-GTP-DY-647P1 and the assay buffer for normalization control to exclude GEF-independent GTP loading and background signals. In order to induce a reaction, 5 µL of the SOS1cat working solution or the control solution was injected into each well. 5 µL of a compound having various concentrations from 128 pM to 10 µM was added to wells containing the SOS1cat working solution and incubated at room temperature for 10 minutes to bind to SOS1.
10 µL of the KRAS^G12D solution was added to each well and incubated for 30 minutes at room temperature while shaking. HTRF was measured using a Thermo Varioskan (excitation 334 nm, emission 665 nm). The IC50 of each inhibitor was analyzed using Graphad Prism.
The SOS1 inhibitory activity of the Example compounds measured by the above method was evaluated based on the following criteria, and the results are shown in Table 29.
For the molecule `C[C@@H](NC(=O)c1ccc(=O)n(-c2ccccc2NS(C)(=O)=O)n1)c1cc(N)cc(C(F)(F)F)c1` [Example 33, N-[(1R)-1-[3-amino-5-(trifluoromethyl)phenyl]ethyl]-1-[2-(methanesulfonamido)phenyl]-6-oxo-pyridazine-3-carboxamide], the pIC50 is more than 6.00.
In the case of `C[C@@H](NC(=O)c1ccc(=O)n(-c2cccc(NS(C)(=O)=O)c2)n1)c1cc(N)cc(C(F)(F)F)c1` [Example 34, (R)-N-(1-(3-amino-5-(trifluoromethyl)phenyl)ethyl)-1-(3-(methylsulfonamido)phenyl)-6-oxo-1,6-dihydropyridazine-3-carboxamide], the pIC50 was 5.00 to 6.00.
For `CC(=O)Nc1cccc(-n2nc(C(=O)N[C@H](C)c3cc(N)cc(C(F)(F)F)c3)ccc2=O)c1` [Example 35, (R)-1-(3-acetamidophenyl)-N-(1-(3-amino-5-(trifluoromethyl)phenyl)ethyl)-6-oxo-1,6-dihydropyridazine-3-carboxamide] the value was more than 6.00.
For `COc1ccc(-n2nc(C(=O)N[C@H](C)c3cc(N)cc(C(F)(F)F)c3)ccc2=O)cc1OC` [Example 36, N-[(1R)-1-[3-amino-5-(trifluoromethyl)phenyl]ethyl]-1-(3,4-dimethoxyphenyl)-6-oxo-pyridazine-3-carboxamide], the pIC50 is more than 6.00.
On to `C[C@@H](NC(=O)c1ccc(=O)n(-c2cccc(S(C)(=O)=O)c2)n1)c1cc(N)cc(C(F)(F)F)c1` [Example 37, N-[(1R)-1-[3-amino-5-(trifluoromethyl)phenyl]ethyl]-1-(3-methylsulfonylphenyl)-6-oxo-pyridazine-3-carboxamide], for which the pIC50 was more than 6.00.
Regarding `COc1ccccc1-n1nc(C(=O)N[C@H](C)c2cccc(C(F)(F)CO)c2)ccc1=O` [Example 38, N-[(1R)-1-[3-(1,1-difluoro-2-hydroxyethyl)phenyl]ethyl]-1-(2-methoxyphenyl)-6-oxo-pyridazine-3-carboxamide], the pIC50 was more than 6.00.
Turning to `C[C@@H](NC(=O)c1ccc(=O)n(-c2cccc(NS(C)(=O)=O)c2)n1)c1cccc(C(F)(F)CO)c1` [Example 39, (R)-N-(1-(3-(1,1-difluoro-2-hydroxyethyl)phenyl)ethyl)-1-(3-(methylsulfonamido)phenyl)-6-oxo-1,6-dihydropyridazine-3-carboxamide], the pIC50 is more than 6.00.
The result for `COc1cccc(-n2nc(C(=O)N[C@H](C)c3cc(N)cc(C(F)(F)F)c3)ccc2=O)c1` [Example 40, N-[(1R)-1-[3-amino-5-(trifluoromethyl)phenyl]ethyl]-1-(3-methoxyphenyl)-6-oxo-pyridazine-3-carboxamide] reads more than 6.00.
On to `Cc1ccccc1-n1nc(C(=O)N[C@H](C)c2cc(N)cc(C(F)(F)F)c2)ccc1=O` [Example 41, N-[(1R)-1-[3-amino-5-(trifluoromethyl)phenyl]ethyl]-1-(o-tolyl)-6-oxo-pyridazine-3-carboxamide], for which the pIC50 is more than 6.00.
For `COc1ccc(-n2nc(C(=O)N[C@H](C)c3cccc(C(F)(F)CO)c3F)ccc2=O)cc1` [Example 42, (R)-N-(1-(3-(1,1-difluoro-2-hydroxyethyl)-2-fluorophenyl)ethyl)-1-(4-methoxyphenyl)-6-oxo-1,6-dihydropyridazine-3-carboxamide] the value was more than 6.00; for `C[C@@H](NC(=O)c1ccc(=O)n(-c2cccc(C(=O)N(C)C)c2)n1)c1cccc(C(F)(F)CO)c1F` [Example 43, N-[(1R)-1-[3-(1,1-difluoro-2-hydroxy-ethyl)-2-fluorophenyl]ethyl]-1-[3-(dimethylcarbamoyl)phenyl]-6-oxo-pyridazine-3-carboxamide], more than 6.00.
The result for `C[C@@H](NC(=O)c1ccc(=O)n(-c2ccccc2OC(F)(F)F)n1)c1cccc(C(F)(F)CO)c1F` [Example 44, (R)-N-(1-(3-(1,1-difluoro-2-hydroxyethyl)-2-fluorophenyl)ethyl)-6-oxo-1-(2-(trifluoromethoxy)phenyl)-1,6-dihydropyridazine-3-carboxamide] reads more than 6.00.
In the case of `C[C@@H](NC(=O)c1ccc(=O)n(-c2ccccc2OC(F)(F)F)n1)c1cc(N)cc(C(F)(F)F)c1` [Example 45, N-[(1R)-1-[3-amino-5-(trifluoromethyl)phenyl]ethyl]-6-oxo-1-[2-(trifluoromethoxy)phenyl]pyridazine-3-carboxamide], the pIC50 is more than 6.00.
Consider `C[C@@H](NC(=O)c1ccc(=O)n(-c2ccccc2F)n1)c1cc(N)cc(C(F)(F)F)c1` [Example 46, (R)-N-(1-(3-amino-5-(trifluoromethyl)phenyl)ethyl)-1-(2-fluorophenyl)-6-oxo-1,6-dihydropyridazine-3-carboxamide], for which the pIC50 was more than 6.00.
For `C[C@@H](NC(=O)c1ccc(=O)n(-c2ccccc2O)n1)c1cc(N)cc(C(F)(F)F)c1` [Example 47, N-[(1R)-1-[3-amino-5-(trifluoromethyl)phenyl]ethyl]-1-(2-hydroxyphenyl)-6-oxo-pyridazine-3-carboxamide] the value was more than 6.00; for `C[C@@H](NC(=O)c1cc(O)c(=O)n(-c2ccccc2)n1)c1cc(N)cc(C(F)(F)F)c1` [Example 48, (R)-N-(1-(3-amino-5-(trifluoromethyl)phenyl)ethyl)-5-hydroxy-6-oxo-1-phenyl-1,6-dihydropyridazine-3-carboxamide], 5.00 to 6.00; for `Cc1cc(=O)n(-c2ccccc2)nc1C(=O)N[C@H](C)c1cc(N)cc(C(F)(F)F)c1` [Example 49, N-[(1R)-1-[3-amino-5-(trifluoromethyl)phenyl]ethyl]-4-methyl-6-oxo-1-phenyl-pyridazine-3-carboxamide], 5.00 to 6.00.
`C#Cc1cc(=O)n(-c2ccccc2)nc1C(=O)N[C@H](C)c1cc(N)cc(C(F)(F)F)c1` [Example 50, N-[(1R)-1-[3-amino-5-(trifluoromethyl)phenyl]ethyl]-4-ethynyl-6-oxo-1-phenyl-pyridazine-3-carboxamide]: the pIC50 was 5.00 to 6.00.
The result for `C[C@@H](NC(=O)c1ccc(=O)n(-c2ccccc2N)n1)c1cc(N)cc(C(F)(F)F)c1` [Example 51, (R)-N-(1-(3-amino-5-(trifluoromethyl)phenyl)ethyl)-1-(2-aminophenyl)-6-oxo-1,6-dihydropyridazine-3-carboxamide] reads more than 6.00; that for `CC(=O)Nc1ccccc1-n1nc(C(=O)N[C@H](C)c2cc(N)cc(C(F)(F)F)c2)ccc1=O` [Example 52, (R)-1-(2-acetamidophenyl)-N-(1-(3-amino-5-(trifluoromethyl)phenyl)ethyl)-6-oxo-1,6-dihydropyridazine-3-carboxamide], 5.00 to 6.00.
Consider `CC(=O)Nc1cccc(-n2nc(C(=O)N[C@H](C)c3cccc(C(F)(F)CO)c3)ccc2=O)c1` [Example 53, 1-(3-acetamidophenyl)-N-[(1R)-1-[3-(1,1-difluoro-2-hydroxyethyl)phenyl]ethyl]-6-oxo-pyridazine-3-carboxamide], for which the pIC50 is 5.00 to 6.00.
`C[C@@H](NC(=O)c1cc(C2CC2)c(=O)n(-c2ccccc2)n1)c1cc(N)cc(C(F)(F)F)c1` [Example 54, (R)-N-(1-(3-amino-5-(trifluoromethyl)phenyl)ethyl)-5-cyclopropyl-6-oxo-1-phenyl-1,6-dihydropyridazine-3-carboxamide]: the pIC50 is more than 6.00.
With `C[C@@H](NC(=O)c1nn(-c2ccccc2)c(=O)cc1C1CC1)c1cc(N)cc(C(F)(F)F)c1` [Example 55, (R)-N-(1-(3-amino-5-(trifluoromethyl)phenyl)ethyl)-4-cyclopropyl-6-oxo-1-phenyl-1,6-dihydropyridazine-3-carboxamide], the pIC50 is more than 6.00.
As to `C[C@@H](NC(=O)c1cc(C#N)c(=O)n(-c2ccccc2)n1)c1cc(N)cc(C(F)(F)F)c1` [Example 56, N-[(1R)-1-[3-amino-5-(trifluoromethyl)phenyl]ethyl]-5-cyano-6-oxo-1-phenyl-pyridazine-3-carboxamide], the pIC50 was more than 6.00.

(Values after patent publication EP4667458A1 (Kanaph Therapeutics Inc., priority 2023, dated 2024).)
